Data published in patent US7807877B2, “Genetic sequences having methyltransferase activity and uses therefor” (International Flower Developments Pty. Ltd., priority 2002, dated 2010).
Where “and” joins values, the source holds several entries; their conditions need not be identical. Identical values can stand only once.

What was measured:
[1] = Reconstruction experiments: anthocyanins added to petal juice of Medeo roses; type: physicochemical, Rosa hybrida; conditions: pH 4.9
Protocol: The rose cultivar Medeo generally produces cream-colored to pale apricot flowers (RHSCC 158C to 159A). […] The estimated vacuolar pH of Medeo petals is around 4.6. The petal juice of Medeo roses was extracted by grinding one petal with 50 μL of water using a mortar and pestle. The petal juice was collected and mixed with 10-20 μL of 1-2 mg/g delphinidin 3-glucoside, delphinidin 3,5-diglucoside and malvidin 3,5-diglucoside. The colors observed were described according to the Royal Horticultural Society Color Charts (RHSCC) (The Royal Horticultural Society, London) (Table 8).

Petunia FMT (E20) [2] = test: Methyltransferase assay (14C-SAM, TLC) of crude homogenate of E. coli containing pCGP3086; type: biochemical, Petunia hybrida; design: key to Petunidin (product on TLC) / Malvidin (product on TLC): yes = detection of product on TLC; no = no reaction observed as determined by absence of product
Protocol: 10 mLs of LB containing ampicillin at 100 μg/mL and kanamycin at 25 μg/mL. (LB/Amp100+Kan25) were inoculated with a single colony of pCGP3086 or pQE30 in M15 (pREP4) cells. […] IPTG was then added to a final concentration of 1 mM and the culture was further incubated at 30° C. with shaking for 8 hours. The cells were pelleted by centrifugation at 3500 rpm for 10 minutes at 4° C. The pellet was resuspended in 1 mL of 0.1 M NaPi, pH 7.5, 4 mM MgCl2. […] The mixture was then sonicated for two bursts of 10 seconds at output 2-3 and then incubated on ice for 30 minutes. The cell debris was pelleted by centrifugation at 14,000 rpm for 20 minutes at 4° C. The supernatant was passed through a NAP-10 column (Pharmacia) and 1.5 mL of the sample collected in 0.1 M NaPi, pH 7.5, 4 mM MgCl2. […] (1983), supra. Methyltransferase assays were set up according to Table 10 in a total reaction volume of 50 μL. […] The assay reactions were incubated at 30° C. for 30 minutes. Fifty microlitres of a chloroform mix (CHCl3:methanol/1% HCl, 2:1) was added and the mixture was then vortexed to stop the reactions. […] The tube was then placed in a boiling waterbath for 30 minutes and the contents subsequently desiccated under vacuum.

Torenia FMT (TFMT) [3] = test: Methyltransferase assay (14C-SAM, TLC) of crude homogenate of E. coli containing pCGP3090; type: biochemical, Torenia hybrida; design: key to Petunidin (product on TLC) / Malvidin (product on TLC): yes = detection of product on TLC; no = no reaction observed as determined by absence of product
Protocol: (§1) The assay reactions were incubated at 30° C. for 30 minutes. Fifty microlitres of a chloroform mix (CHCl3:methanol/1% HCl, 2:1) was added and the mixture was then vortexed to stop the reactions. The phases were separated by centrifugation at 13,000 rpm for 5 minutes and 50 μL of the upper phase was transferred into a clean tube and the contents subsequently hydrolysed by the addition of 12.5 μL of 10M HCl. The tube was then placed in a boiling waterbath for 30 minutes and the contents subsequently desiccated under vacuum. The residue was resuspended in 2-3 μL of methanol/1% HCl and spotted onto a TLC plate alongside standard samples of petunidin, malvidin and delphinidin. The anthocyanidins were separated in a Forestal system (HOAc:water:HCl; 30:10:3) (Markham, Techniques of flavonoid identification, Academic Press, London, 1982) and the TLC was exposed to an autoradiographic film (Kodak) for 16 hours at −70° C.
The confirmation of recombinant protein expression and preparation of crude protein extracts and subsequent determination of methyltransferase activity were as described for the analysis of the Petunia E20 cDNA clone (PFMT) (described above in Example 7).
The enzyme activities of the protein encoded by the Torenia FMT cDNA clone in pCGP3090 along with that of the Petunia FMT (E20) clone in pCGP3086 were assessed using the substrates delphinidin 3-glucoside and delphinidin 3-rutinoside under assay conditions as described in Jonsson et al. (1983), supra and in Example 7 of this specification.
Methyltransferase assays were set up according to Table 15 in a total reaction volume of 50 μL.
Reaction conditions were as described previously (Example 7).

Petunia FMT (E20) [4] = test: HPLC assay of methyltransferase activity, E. coli extract containing pCGP3086; type: biochemical, Petunia hybrida
Protocol: as §1
(§2) Anthocyanidins in the reaction mixture were analysed by HPLC via gradient elution using gradient conditions of 50% B to 60% B over 10 minutes, then 60% B for 10 minutes and finally 60% B to 100% B over 5 minutes where solvent A consisted of TFA:H2O (5:995) and solvent B consisted of acetonitrile:TFA:H2O (500:5:495). An Asahi Pac ODP-50 cartridge column (250 mm×4.6 mm ID) was used for the reversed phase chromatographic separations. […].
(§3) The enzyme activities of the peptides encoded by Petunia and Torenia FMT cDNA clones in pCGP3086 and pCGP3090, respectively were further assessed using the substrates delphinidin 3-glucoside and delphinidin 3-rutinoside and delphinidin 3,5-diglucoside under assay conditions as previously described (Table 15, Example 9) except that the ^14C-labelled SAM was replaced with non radioactive SAM at 2 mg/mL and the substrates (delphinidin 3-glucoside and delphinidin 3-rutinoside and delphinidin 3,5-diglucoside) at 2 mg/mL.

Torenia FMT (TFMT) [5] = test: HPLC assay of methyltransferase activity, E. coli extract containing pCGP3090; type: biochemical, Torenia hybrida
Protocol: as §1, §2, §3

[6] = pCGP3086 crude homogenate + 14C-SAM (Table 16, positive control)
[7] = pCGP3086 crude homogenate + 14C-SAM, 30° C., 30 minutes (Table 11)
[8] = pCGP3090 crude homogenate + 14C-SAM (Table 16)
[9] = pCGP3086 (PFMT), percentage of total anthocyanidins, duplicate a/b
[10] = pCGP3086, substrate 2 mg/mL, SAM 2 mg/mL, duplicate a/b
[11] = pCGP3090 (TFMT), percentage of total anthocyanidins, duplicate a/b
[12] = pCGP3090, substrate 2 mg/mL, SAM 2 mg/mL, duplicate a/b

With `OC[C@H]1O[C@@H](Oc2cc3c(O)cc(O)cc3[o+]c2-c2cc(O)c(O)c(O)c2)[C@H](O)[C@@H](O)[C@@H]1O` [D3G, delphinidin 3-glucoside] the COLOR [1] was “red-purple”, the “RHSCC#” value [1] was 74A and the “Petunidin and malvidin, the methylated derivatives of delphinidin, in assay reactions” value (Petunia FMT (E20) [2]; crude homogenates from pCGP3086 cells, 14C-SAM) was “detected”. The “Malvidin (product on TLC)” value (Petunia FMT (E20) [2]; [6]) was “yes”, the “Petunidin (product on TLC)” value (Petunia FMT (E20) [2]; [6]) was “yes” and the “Malvidin (product on TLC)” value (Petunia FMT (E20) [2]; [7]) was “yes”. For the same compound, the “Petunidin (product on TLC)” value (Petunia FMT (E20) [2]; [7]) was “yes”, the “Petunidin and malvidin, the methylated derivatives of delphinidin, in assay reactions” value (Torenia FMT (TFMT) [3]; crude homogenates from pCGP3090 (containing TFMT), 14C-SAM) was “detected” and the “Malvidin (product on TLC)” value (Torenia FMT (TFMT) [3]; [8]) was “yes”. For the same compound, the “Petunidin (product on TLC)” value (Torenia FMT (TFMT) [3]; [8]) was “yes”, the “product of flavonoid methyltransferase activity with the substrate” value (Petunia FMT (E20) [4]; Petunia FMT (E20) in pCGP3086, to a lesser degree malvidin) was “predominantly petunidin” and the “Predominant FMT Activity” value (Petunia FMT (E20) [4]; pCGP3086) was 3′FMT. The “% of anthocyanidin detected cya” value (Petunia FMT (E20) [4]; [9]) was 11.8% and 9.7%, the “% of anthocyanidin detected del” value (Petunia FMT (E20) [4]; [9]) was 35.5% and 31.4% and the “% of anthocyanidin detected mal” value (Petunia FMT (E20) [4]; [9]) was 6.0% and 6.5%. For the same compound, the “% of anthocyanidin detected peo” value (Petunia FMT (E20) [4]; [9]) was 2.7% and 3.0%, the “% of anthocyanidin detected pet” value (Petunia FMT (E20) [4]; [9]) was 44.0% and 49.4% and the “Anthocyanidins (mg/g) Cya” value (Petunia FMT (E20) [4]; [10]) was 2.4 mg/g and 2.0 mg/g. For the same compound, the “Anthocyanidins (mg/g) Del” value (Petunia FMT (E20) [4]; [10]) was 7.1 mg/g and 6.4 mg/g, the “Anthocyanidins (mg/g) Mal” value (Petunia FMT (E20) [4]; [10]) was 1.2 mg/g and 1.3 mg/g and the “Anthocyanidins (mg/g) Peo” value (Petunia FMT (E20) [4]; [10]) was 0.5 mg/g and 0.6 mg/g. For the same compound, the “Anthocyanidins (mg/g) Pet” value (Petunia FMT (E20) [4]; [10]) was 8.8 mg/g and 10.0 mg/g, the “product of flavonoid methyltransferase activity with the substrate” value (Torenia FMT (TFMT) [5]; Torenia FMT in pCGP3090, to a lesser degree petunidin) was “predominantly malvidin” and the “Predominant FMT Activity” value (Torenia FMT (TFMT) [5]; pCGP3090) was 3′5′FMT. For the same compound, the “% of anthocyanidin detected cya” value (Torenia FMT (TFMT) [5]; [11]) was 4.5% and 3.6%, the “% of anthocyanidin detected del” value (Torenia FMT (TFMT) [5]; [11]) was 7.8% and the “% of anthocyanidin detected mal” value (Torenia FMT (TFMT) [5]; [11]) was 74.0% and 75.2%. For the same compound, the “% of anthocyanidin detected peo” value (Torenia FMT (TFMT) [5]; [11]) was 8.5% and 8.0%, the “% of anthocyanidin detected pet” value (Torenia FMT (TFMT) [5]; [11]) was 5.1% and 5.4% and the “Anthocyanidins (mg/g) Cya” value (Torenia FMT (TFMT) [5]; [12]) was 1.0 mg/g and 0.9 mg/g. The “Anthocyanidins (mg/g) Del” value (Torenia FMT (TFMT) [5]; [12]) was 1.8 mg/g and 1.9 mg/g, the “Anthocyanidins (mg/g) Mal” value (Torenia FMT (TFMT) [5]; [12]) was 17.1 mg/g and 18.1 mg/g and the “Anthocyanidins (mg/g) Peo” value (Torenia FMT (TFMT) [5]; [12]) was 2.0 mg/g and 1.9 mg/g. The “Anthocyanidins (mg/g) Pet” value (Torenia FMT (TFMT) [5]; [12]) was 1.2 mg/g and 1.3 mg/g.
